The values that follow come from ChEMBL document CHEMBL4406872, “Synthesis and structure activity relationship of 1, 3-benzo-thiazine-2-thiones as selective HDAC8 inhibitors” (Eur J Med Chem, 2019).

The fraction remaining is the share of the starting amount still present when the sample was taken. A high value points to greater stability.

SMILES strings stand for the structures.

A short description of this data set: physchem. The settings on record: bicarbonate buffer.
Compound `Fc1ccc2c(c1)C1=NCCN1C(=S)S2` gave a fraction remaining at 24 h, 5000 µM of more than 95%. `S=C1Sc2cc(Br)ccc2C2=NCCCN12` displayed an amount remaining at 24 h, 5000 µM of more than 95%. Then `Cc1cccc2c1C1=NCCN1C(=S)S2`, with more than 95%; and `N=C1Sc2ccccc2C2=NCCCN12`, with less than 5%.
